We go through 16 compounds from patent publication US9561228B2 (Celgene Avilomics Research, Inc., priority 2013, dated 2017).

Like-named read-outs stand apart in the source and are kept apart here.

Test [1] addresses T1, Erk1 (Homo sapiens, UniProt P27361).
T1 construct: purchased Millipore 14-439
In words: Protein Mass Modification Assay (intact protein MALDI, 60 min, 10-fold excess of compound). It is filed as binding. The method, then: Protein Mass Modification Assay
Intact protein: Erk1 from Millipore (Cat. No. 14-439) was incubated for 60 min. at room temperature with a 10-fold excess of test compound to protein. 4 μL aliquots of the resulting mixture were diluted with 15 μL of 0.2% TFA prior to micro C4 ZipTipping directly onto the MALDI target using sinapinic acid as the desorption matrix (10 mg/ml in 0.1% TFA:Acetonitrile 50:50, v/v). The centroid mass of the target protein in the control sample was compared with the centroid mass of the target protein incubated with compound. A shift in the centroid mass of the treated protein compared to the untreated protein was divided by the molecular weight of the compound. This number corresponds to the percentage of modified protein after one hour incubation. Results from this assay are reported in Table A under the column “ERK1 Mass Mod (%).”

The target in test [2] is T2, MEK1 activated ERK1 (Homo sapiens, UniProt P27361).
T2 construct: purchased Millipore (Billerica, Mass.) 14-439-K
T2 sequence (P27361 whole entry): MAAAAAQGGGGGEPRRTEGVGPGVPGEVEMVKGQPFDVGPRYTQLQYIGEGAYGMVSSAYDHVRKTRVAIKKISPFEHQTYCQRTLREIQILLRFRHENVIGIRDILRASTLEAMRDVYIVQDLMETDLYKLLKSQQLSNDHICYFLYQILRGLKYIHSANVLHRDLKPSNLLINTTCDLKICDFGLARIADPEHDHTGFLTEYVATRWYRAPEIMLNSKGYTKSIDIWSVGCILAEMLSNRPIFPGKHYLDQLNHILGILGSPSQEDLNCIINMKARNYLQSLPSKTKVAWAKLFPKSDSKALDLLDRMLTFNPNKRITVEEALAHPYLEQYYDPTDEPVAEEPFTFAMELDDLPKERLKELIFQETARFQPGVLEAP
In words: Omnia continuous-read kinase assay for potency against MEK1 activated ERK1. It is filed as biochemical. In short, it runs like this: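 Apparent IC50 came from initial reaction slopes (RFU vs time) plotted against log inhibitor with a variable-slope fit. Reactions were started with ERK1 (4 nM final) added to 50 μM ATP, roughly at its appKM, and 10 μM Sox-conjugated ST17 peptide in 20 mM Tris pH 7.5, 5 mM MgCl2. Fluorescence was monitored every 71 seconds.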

Test [3] relates to ERK1/2 phosphorylation of p90RSK in HT29 cells. In words: pRSK MSD Assay in HT29 cells. The format is cell-based. The conditions noted are these: Homo sapiens, HT-29, read-out: ERK1/ERK2 PRSK MSD HT29 EC50. Put shortly: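 Phospho-RSK level, read by electrochemiluminescence on RSK-antibody-coated MSD plates with a phospho-RSK/Sulfo-tag detection pair, reports cellular ERK1/2 activity. HT29 cells, kept overnight in 0.1% FBS medium, were exposed to compound for 120 min at 37° C before lysis.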

For test [4], the system named is HT-29 cells (colorectal adenocarcinoma). In words: Inhibition of cancer cell proliferation, HT-29 (CellTiterGlo, 72 hours). The note with it: Homo sapiens. It is filed as cell-based. Put shortly: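 Proliferation over 72 h at 37° C was read by CellTiterGlo luminescence, translated to cell counts with a cell-density standard curve (390–50,000 cells). Compound added as 3-fold dilutions from a 5,000 nM two-fold stock to 3000 seeded HT-29 cells; GI50 from percent inhibition relative to untreated wells.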
For orientation: Cellular ATP, detected with luciferase, serves as a proxy for viable cell number.

Test [5] has as its system ERK1/2 phosphorylation of p90RSK in A375 cells. Kind of test: Detection of total and phosphor-RSK by MSD ELISA (A375). It is filed as cell-based. The note with it: Homo sapiens, A-375, read-out: ERK1/ERK2 PRSK A375 EC50. In short, it runs like this:
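Electrochemiluminescent MSD ELISA: common RSK capture antibody, with pRSK Ser380 or total RSK detection antibodies plus SulfoTag secondaries. Samples were lysates of A375 cells exposed to compound for 2 h at 37° C after overnight culture in 0.1% FBS DMEM.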
Background: An ELISA detects its analyte on a solid surface through an enzyme-linked reagent.

The test system of test [6] is ERK1/2 phosphorylation of p90RSK in HCT116 cells. Kind of test: Detection of total and phospho-RSK by MSD ELISA (HCT116). It is filed as cell-based. The note with it: Homo sapiens, HCT-116, read-out: ERK1/ERK2 PRSK HCT116 EC50. In short, it runs like this: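 ERK1/2 activity read in cells as p90RSK phosphorylation: lysates from HCT116 cells given compound for 2 h at 37° C were captured on MSD plates. Detection used a pSer380 RSK or a total RSK antibody with SulfoTag secondaries.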

Where [7] appears, read: MEK1 activated ERK1, ATP at KM, read-out: ERK1 Omnia WT ATP KM IC50.

T1 sequence (P27361 whole entry): as above

For the compound `C=CC(=O)Nc1cc(OC)ccc1Nc1nc(Nc2ccc(N3CCC[C@@H]3C(N)=O)cc2C#N)ncc1Cl` [Compound I-180, (R)-1-(4-((4-((2-acrylamido-4-methoxyphenyl)amino)-5-chloropyrimidin-2-yl)amino)-3-cyanophenyl)pyrrolidine-2-carboxamide], the “ERK1 Mass Mod (%)” value in test [1] is recorded as “E (a mass modification of ≧70%)”. Besides, the IC50 (as a rule, the point on the concentration scale where inhibition reaches its midpoint) in test [2] (setting [7]) lay in the range of 501 to 999 nM. For the same compound, in test [3], the EC50 lay within 501 to 999 nM. For the same compound, in test [4], the GI50 – broadly, the concentration that inhibits growth by half – was over 1000 nM.

Regarding `C=CC(=O)Nc1ccccc1Nc1nc(N[C@H]2CCC[C@@H](CO)C2)ncc1Cl` (racemic) [Compound I-121, Rac-cis-N-(2-((5-chloro-2-((3-(hydroxymethyl)cyclohexyl)amino)pyrimidin-4-yl)amino)phenyl)acrylamide], the “ERK1 Mass Mod (%)” value in test [1] is “E (key: E: a mass modification of ≧70%; F: a mass modification of 31-69%; G: a mass modification ≦30%)”. For the same compound, the IC50 in test [2] (setting [7]) is under 100 nM. Further, the EC50 in test [3] is under 100 nM. The concentration for 50% growth inhibition (GI50) in test [4] is under 100 nM.

On to `COc1cc(Nc2ncc(C(F)(F)F)c(Nc3ccc(C)cc3N)n2)c(C)cn1` [Compound I-353, N^4-(2-amino-4-methylphenyl)-N^2-(2-methoxy-5-methylpyridin-4-yl)-5-(trifluoromethyl)pyrimidine-2,4-diamine], for which, in test [1], the “ERK1 Mass Mod (%)” value was “G (a mass modification ≦30%)”. Also, the EC50 in test [5] and in test [6] was over 1000 nM in each case.

For `C=C(C)S(=O)(=O)Nc1cc(F)ccc1Nc1nc(Nc2cc(C(C)=O)ccc2C)ncc1Cl` [Compound I-243, N-(2-((2-((5-acetyl-2-methylphenyl)amino)-5-chloropyrimidin-4-yl)amino)-5-fluorophenyl)prop-1-ene-2-sulfonamide], in test [1], the “ERK1 Mass Mod (%)” value was “G (a mass modification ≦30%)”. In test [2] (setting [7]), the IC50 was over 1000 nM. The EC50 in test [3] was over 1000 nM.

Consider `C=CC(=O)Nc1cc(C)ccc1Nc1nc(Nc2cc(O)ncc2C)ncc1C(F)(F)F` [Compound I-365, N-(2-((2-((2-hydroxy-5-methylpyridin-4-yl)amino)-5-(trifluoromethyl)pyrimidin-4-yl)amino)-5-methylphenyl)acrylamide], for which the “ERK1 Mass Mod (%)” value in test [1] is listed as “E (a mass modification of ≧70%)”. Further, the EC50 in test [3], in test [5] and in test [6] was over 1000 nM in each case.

In the case of `C=CC(=O)Nc1ccccc1Nc1nc(Nc2cc(C(=O)NOCCO)ccc2C)ncc1C(F)(F)F` [Compound I-73, 3-((4-((2-Acrylamidophenyl)amino)-5-(trifluoromethyl)pyrimidin-2-yl)amino)-N-(2-hydroxyethoxy)-4-methylbenzamide], in test [1], the “ERK1 Mass Mod (%)” value is on record as “E (a mass modification of ≧70%)”. Further, the half-inhibitory concentration (IC50) in test [2] (setting [7]) lay in the range of 101 to 500 nM. In addition, in test [3], the EC50 lay within 101 to 500 nM. In addition, in test [4], the GI50 was 101 to 500 nM.

With `C=CC(=O)Nc1ccccc1Nc1nc(Nc2cc(C(N)=O)ccc2C(F)(F)F)ncc1Cl` [Compound I-220, 3-((4-((2-acrylamidophenyl)amino)-5-chloropyrimidin-2-yl)amino)-4-(trifluoromethyl)benzamide], the “ERK1 Mass Mod (%)” value in test [1] was “E (a mass modification of ≧70%)”. Besides, the half-maximal inhibitory concentration (IC50) in test [2] (setting [7]) was in the range of 101 to 500 nM. Besides, the EC50 in test [3] lay within 501 to 999 nM.

Regarding `C=CC(=O)Nc1ccccc1Nc1nc(N[C@@H]2CCC[C@H](C(N)=O)C2)ncc1C(F)(F)F` [Compound I-7, (1S,3R)-3-((4-((2-acrylamidophenyl)amino)-5-(trifluoromethyl)pyrimidin-2-yl)amino)cyclohexanecarboxamide], the “ERK1 Mass Mod (%)” value in test [1] is “E (a mass modification of ≧70%)”. Also, the EC50 in test [3] fell in the range of 501 to 999 nM. This compound also gave a GI50 in test [4] of 501 to 999 nM.

In the case of `C=CC(=O)Nc1cc(CN2CCN(C)CC2)ccc1Nc1nc(Nc2cc(OC)ncc2C)ncc1C(F)(F)F` [Compound I-380, N-(2-((2-((2-methoxy-5-methylpyridin-4-yl)amino)-5-(trifluoromethyl)pyrimidin-4-yl)amino)-5-((4-methylpiperazin-1-yl)methyl)phenyl)acrylamide], the “ERK1 Mass Mod (%)” value in test [1] is “E (a mass modification of ≧70%)”. Also, the IC50 in test [2] (ATP at KM, WT) was over 1000 nM. The results for the EC50 in test [3] and in test [5] were 501 to 999 nM and over 1000 nM, respectively.

For `C=CC(=O)Nc1cc(OCC(=O)N2CCN(c3ncccn3)CC2)ccc1Nc1nc(Nc2cc(OC)ncc2C)ncc1C(F)(F)F` [Compound I-403, N-(2-((2-((2-methoxy-5-methylpyridin-4-yl)amino)-5-(trifluoromethyl)pyrimidin-4-yl)amino)-5-(2-oxo-2-(4-(pyrimidin-2-yl)piperazin-1-yl)ethoxy)phenyl)acrylamide], the “ERK1 Mass Mod (%)” value in test [1] was “E (a mass modification of ≧70%)”. Besides, the results for the EC50 in test [3], in test [5] and in test [6] were under 100 nM, 101 to 500 nM and 101 to 500 nM, respectively.

As to `C=CC(=O)Nc1cc(C(=O)N2CCN(C(=O)CO)CC2)ccc1Nc1nc(Nc2cc(OC)ncc2C)ncc1C(F)(F)F` [Compound I-402, N-(5-(4-(2-hydroxyacetyl)piperazine-1-carbonyl)-2-((2-((2-methoxy-5-methylpyridin-4-yl)amino)-5-(trifluoromethyl)pyrimidin-4-yl)amino)phenyl)acrylamide], the “ERK1 Mass Mod (%)” value in test [1] is given as “E (a mass modification of ≧70%)”. Also, the figures for the EC50 in test [3], in test [5] and in test [6] were 501 to 999 nM, 501 to 999 nM and 101 to 500 nM, respectively.

As to `C=C(C)S(=O)(=O)Nc1cc(C)ccc1Nc1nc(Nc2cc(C(C)=O)ccc2C)ncc1C(F)(F)F` [Compound I-98, N-(2-((2-((5-acetyl-2-methylphenyl)amino)-5-(trifluoromethyl)pyrimidin-4-yl)amino)-5-methylphenyl)prop-1-ene-2-sulfonamide], the “ERK1 Mass Mod (%)” value in test [1] is “G (a mass modification ≦30%)”. Moreover, in test [2] (setting [7]), the IC50 lay in the range of 101 to 500 nM. Also, the EC50 in test [3] is over 1000 nM.

As for `CC(=O)N1CCC[C@H](Nc2ncc(C(F)(F)F)c(Nc3ccccc3NC(=O)CCCl)n2)C1` [Compound I-21, (S)—N-(2-((2-((1-Acetylpiperidin-3-yl)amino)-5-(trifluoromethyl)pyrimidin-4-yl)amino)phenyl)-3-chloropropanamide], in test [1], the “ERK1 Mass Mod (%)” value is given as “G (a mass modification ≦30%)”. Besides, in test [2] (setting [7]), the half-maximal inhibitory concentration (IC50) fell in the range of 101 to 500 nM. Further, the EC50 in test [3] was over 1000 nM.

For `C=CC(=O)Nc1cc(C)ccc1Nc1nc(Nc2cc(OC)ncn2)ncc1C(F)(F)F` [Compound I-348, N-(2-((2-((6-methoxypyrimidin-4-yl)amino)-5-(trffluoromethyl)pyrimidin-4-yl)amino)-5-methylphenyl)acrylamide], the “ERK1 Mass Mod (%)” value in test [1] was “G (a mass modification ≦30%)”. The EC50 in test [3] lay within 101 to 500 nM; in test [5] it was 501 to 999 nM; in test [6], 501 to 999 nM.

On to `C=CC(=O)Nc1ccccc1Nc1nc(N[C@H]2CCCN(C(=O)CCCC(=O)NCCCOCCOCCOCCCNC(=O)CCCC[C@@H]3SC[C@@H]4NC(=O)N[C@@H]43)C2)ncc1Cl` [Compound I-303, 5-((S)-3-((4-((2-acrylamidophenyl)amino)-5-chloropyrimidin-2-yl)amino)piperidin-1-yl)-5-oxo-N-(15-oxo-19-((3aS,4S,6aR)-2-oxohexahydro-1H-thieno[3,4-d]imidazol-4-yl)-4,7,10-trioxa-14-azanonadecyl)pentanamide], for which the “ERK1 Mass Mod (%)” value in test [1] is recorded as “G (a mass modification ≦30%)”. Moreover, the EC50 in test [3] is over 1000 nM. The same compound returned a 50% growth inhibitory concentration (GI50) in test [4] of over 1000 nM.

Consider `C#CCOc1cc(C)c(Nc2ncc(Cl)c(Nc3ccccc3NC(=O)C=C)n2)cc1C(N)=O` [Compound I-228, 5-((4-((2-acrylamidophenyl)amino)-5-chloropyrimidin-2-yl)amino)-4-methyl-2-(prop-2-yn-1-yloxy)benzamide], for which the “ERK1 Mass Mod (%)” value in test [1] was “E (a mass modification of ≧70%)”. The IC50 in test [2] (setting [7]) is 101 to 500 nM. For the same compound, the EC50 in test [3] was 101 to 500 nM.
